Source: patent publication US20260248771A1, “VALBENAZINE, A VMAT2 INHIBITOR, AS A FREE BASE A TOSYLATE OR DITOSYLATE SALT, FOR USE IN THE TREATMENT OF CHOREA ASSOCIATED WITH HUNTINGTON'S DISEASE” (Neurocrine Biosciences, Inc., priority 2022, published 2026)

Legend:
Assay type in all cases: in vivo, human
subjects with HD [1] = assay: Phase 3 study: EuroQol 5 Dimensions 5 Levels (EQ-5D-5L)
From the text: Exploratory endpoints included: • Wearable movement sensors (in select sites; optional participation) using MC10 Inc., BIOSTAMP® NPOINT® system • Huntington Disease Health Index • Changes from the screening period baseline to each postbaseline study visit (Weeks 2 through 12) in the TMC based on site assessments • Changes from the screening period baseline to maintenance (the average of the Week 10 and Week 12 assessments) in the TMC based on video recording central rater assessments • CGI-C response at Weeks 2 through 10 • PGI-C response at Weeks 2 through 10 • The change from baseline to Weeks 4, 8, and 10 in the Neuro-QoL Upper Extremity Function T-score. • The change from baseline to Weeks 4, 8, and 10 in the Neuro-QoL Lower Extremity Function T-score • CGI-S at Weeks 2 through 12 • PGI-S at Weeks 2 through 12 • SF-36 at Week 12 • HD-HI at Week 10 and Week 12 • EQ-5D-5L at Week 10 and Week 12 • UHDRS scores for motor, behavior, and functional capacity assessment at Weeks 2 through 12 • Other UHDRS scores including functional assessment and independence scale at Week 12 • AS at Week 12 • Change from screening period in physical activity by movement sensors at the Week 10 visit period […]

subjects with HD [2] = assay: Phase 3 study: Clinical Global Impression of Change (CGI-C) response status
From the text: As used herein, “Clinical Global Impression of Change” or CGI-C refers to a rating instrument based on a 7-point scale (range: 1=very much improved to 7-very much worse) that can be used to rate the overall global improvement of chorea since the initiation of study drug dosing. This scale is a modification of a scale developed by the Psychopharmacology Research Branch of the National Institute of Mental Health to rate the subject's overall improvement in clinical disorder and provides a global evaluation of improvement over time from the clinician's perspective.
In certain embodiments, the method is effective to result in an improvement in Clinical Global Impression of Change (CGI-C) response status, wherein subjects whose score is either a 1 (“very much improved”) or a 2 (“much improved”) in CGI-C were classified as responders. In certain embodiments, at least about 9% of subjects were classified as responders. In certain embodiments, at least about 10%, such as at least about 15%, at least about 20%, at least about 25%, or at least about 30% of subjects were classified as responders. In certain embodiments, at least about 25%, or at least about 30% of subjects were classified as responders after 12 weeks of treatment.
A Phase 3, randomized, double-blind, placebo-controlled study to evaluate the efficacy, safety, and tolerability of once-daily valbenazine in subjects with HD was conducted. The study included a 4-week screening period, an 8-week dose-adjustment period, a 4-week maintenance period, and a final study visit 2 weeks following the final dose of study drug.
Secondary endpoints included: • Clinical Global Impression of Change (CGI-C) response status ([…] of “very much improved” or “much improved”) at Week 12; • Patient Global Impression of Change (PGI-C) response status ([…] of “very much improved” or “much improved”) at Week 12; • Change from baseline to Week 12 in the Quality of Life in Neurological Disorders Upper Extremity Function; and • Change from baseline to Week 12 in the Neuro-QoL Lower Extremity Function.
(§1) Exploratory endpoints included: • Wearable movement sensors (in select sites; optional participation) using MC10 Inc., BIOSTAMP® NPOINT® system • Huntington Disease Health Index • Changes from the screening period baseline to each postbaseline study visit (Weeks 2 through 12) in the TMC based on site assessments • Changes from the screening period baseline to maintenance (the average of the Week 10 and Week 12 assessments) in the TMC based on video recording central rater assessments • CGI-C response at Weeks 2 through 10 • PGI-C response at Weeks 2 through 10 • The change from baseline to Weeks 4, 8, and 10 in the Neuro-QoL Upper Extremity Function T-score. • The change from baseline to Weeks 4, 8, and 10 in the Neuro-QoL Lower Extremity Function T-score • CGI-S at Weeks 2 through 12 • PGI-S at Weeks 2 through 12 • SF-36 at Week 12 • HD-HI at Week 10 and Week 12 • EQ-5D-5L at Week 10 and Week 12 • UHDRS scores for motor, behavior, and functional capacity assessment at Weeks 2 through 12 • Other UHDRS scores including functional assessment and independence scale at Week 12 • AS at Week 12 • Change from screening period in physical activity by movement sensors at the Week 10 visit period

subjects with HD [3] = assay: Phase 3 study: Neuro-QoL Upper Extremity Function T-score
From the text: As used herein, “Neuro-QoL” is a set of self-report measures that assesses the health-related quality of life (HRQOL) of adults and children with neurological disorders. Neuro-QoL Upper Extremity Function scale measures one's ability across fine motor and activities of daily living involving digital, manual and reach-related function and self-care. Neuro-QoL Lower Extremity Function scale measures one's ability to carry out various activities involving the trunk region and increasing degrees of bodily movement, ambulation, balance or endurance. See, National Institute of Neurological Disorders and Stroke (NINDS). User Manual for the Quality of Life in Neurological Disorders (Neuro-QoL) Measures, Version 2.0, March 2015, which is incorporated herein by reference in its entirety.
A Phase 3, randomized, double-blind, placebo-controlled study to evaluate the efficacy, safety, and tolerability of once-daily valbenazine in subjects with HD was conducted. The study included a 4-week screening period, an 8-week dose-adjustment period, a 4-week maintenance period, and a final study visit 2 weeks following the final dose of study drug. […]

subjects with HD [4] = assay: Phase 3 study: Huntington Disease Health Index (HD-HI); conditions: for HD-HI hand and arm function subscale, change from baseline / HD-HI involuntary movements subscale, change from baseline / HD-HI mobility subscale, change from baseline: valbenazine group
From the text: as §1
The HD-HI includes 13 subscales that measure 13 individual areas of health in patients with HD. Observed values and change from baseline were summarized descriptively for each subscale and the total instrument score by treatment group and visit.

COc1cc2c(cc1OC)[C@H]1C[C@@H](OC(=O)[C@@H](N)C(C)C)[C@H](CC(C)C)CN1CC2 [Valbenazine, (S)-2-amino-3-methyl-butyric acid (2R,3R,11bR)-3-isobutyl-9,10-dimethoxy-1,3,4,6,7,11b-hexahydro-2H-pyrido[2,1-a]isoquinolin-2-yl ester]
EQ-5D-5L health index score and distribution of scores for each dimension, differences between treatment groups (subjects with HD [1]; baseline to Weeks 10 and 12): No notable differences between treatment groups were observed | EQ-5D-5L shift toward worsening in any dimension (subjects with HD [1]; valbenazine group): index score and distribution of scores for each dimension. No shift | CGI-C response rate difference between treatment groups (valbenazine minus placebo) (subjects with HD [2]; Week 2): follows: Week 2 (7.71% [95% CI: −0.93, 17.87], nominal p = 0.1157), | CGI-C response rate difference between treatment groups (valbenazine minus placebo) (subjects with HD [2]; Week 4): Week 4 (20.42% [95% CI: 7.53, 33.00], nominal p = 0.0012), Week 6 | CGI-C response rate difference between treatment groups (valbenazine minus placebo) (subjects with HD [2]; Week 6): (20.14% [95% CI: 4.04, 35.89], nominal p = 0.0151), Week 8 | CGI-C response rate difference between treatment groups (valbenazine minus placebo) (subjects with HD [2]; Week 8): (34.50% [95% CI: 16.46, 49.76], nominal p = 0.0001), and Week 10 | CGI-C response rate difference between treatment groups (valbenazine minus placebo) (subjects with HD [2]; Week 10): (24.80% [95% CI: 6.55, 41.18], nominal p = 0.0065). | CGI-C @ week 12, % responders (subjects with HD [2]; Week 12, valbenazine group): 42.9% | CGI-C @ week 12, % responders, Difference (subjects with HD [2]; Week 12, valbenazine vs placebo): 29.7% | Neuro-QoL Upper Extremity Function T Score CFB @ week 12, LS Mean (subjects with HD [3]; valbenazine group): −1.58 | Neuro-QoL Upper Extremity Function T Score CFB @ week 12, LS Mean, Difference (subjects with HD [3]; valbenazine vs placebo): 1.42 | HD-HI hand and arm function subscale, change from baseline (subjects with HD [4]; Week 10): −7.154 | HD-HI involuntary movements subscale, change from baseline (subjects with HD [4]; Week 10): −12.220 | HD-HI mobility subscale, change from baseline (subjects with HD [4]; Week 10): placebo for mobility (Week 10: −6.319 valbenazine vs −4.131 | HD-HI involuntary movements subscale, LS mean difference between treatment groups (subjects with HD [4]; Week 12, ANCOVA model): LS mean difference between treatment groups of −6.662 (95% | HD-HI hand and arm function subscale, change from baseline (subjects with HD [4]; Week 12): −7.169 | HD-HI involuntary movements subscale, change from baseline (subjects with HD [4]; Week 12): −11.195 | HD-HI mobility subscale, change from baseline (subjects with HD [4]; Week 12): placebo; Week 12: −4.208 vs −2.708), involuntary movements (Week | HD-HI total score, changes from baseline (subjects with HD [4]; Weeks 10 and 12): valbenazine group. No meaningful changes in the HD-HI total score
